Assay results taken from patent US7709532B2, “Methods for improving bioavailability of a renin inhibitor” (Novartis AG, priority 2004, dated 2010).
Blank lines part the entries; values can stand above or below the molecule they belong to.

Legend:
in vitro = conditions: human, Caco-2
From the text: (§1) Alternatively, the in vitro transporter affinity of a drug substance can be determined and approximated by a Caco-2 cell assay as described, e.g., in Camenisch et al., Pharm. Act. Helv. 71, 309-327 (1996), or as illustrated herein in the Examples. The identification of the transporter protein and the efficacy of a compound to inhibit the efflux system involved may as well be determined in the Caco-2 cell assay.
(§2) Caco-2 cell monolayers grown on PET filters for 21-25 days are used for the transport experiments. The flux of compounds across Caco-2 cell monolayers grown on PET filters as well as across PET filters alone without Caco-2 cells is determined as follows: Prior to the transport experiment, the culture medium in the acceptor compartment (0.2 mL for apical and 1.0 mL for basolateral sides) is replaced with acceptor solution (HBSS, when relevant containing the inhibitor of interest) preincubated at 37° C. To start the experiment, the medium in the donor compartment (0.35 mL for apical and 1.15 mL for basolateral sides) is replaced with donor solution (compound in HBSS, when relevant containing inhibitor of interest) pre-incubated at 37° C. Aliquots of 150 μL are removed from the donor and the acceptor side after about 1 and 120 min. Transport experiments in both apical-to-basolateral and basolateral-to-apical directions are performed in triplicate at 37° C. in an incubator without shaking.
(§3) The suitability of Caco-2 cells for transport experiments is examined by measuring the permeability of [^3H]-mannitol at >0.1 μM and [^3H]-propranolol at >0.1 μM from apical to basolateral sides for 120 min in a total of 6 representative cell monolayers (3 for each compound) within the same batch of cells.
(§4) Radioactive samples are analyzed by liquid scintillation counting. All other non-radiolabeled samples are kept frozen at −20° C. until analysis by liquid chromatography/tandem mass spectrometry (LC-MS/MS).
(§5) Transport values of the compounds tested are determined using the following equation (Artursson et al., Biochem. Biophys. Res. Comm. 175: 880-885, 1991):
(§6) Papp values are presented as means ± standard deviations of the transport experiments performed (n=3). The statistical significance in differences between any two given data sets is examined by t-test. The probability level for assignment of significance of difference is p<0.025. All statistical analyses were performed using Microsoft EXCEL 5.0c.

[1] = test system: T1, COCCCOc1cc(C[C@@H](C[C@H](N)[C@@H](O)C[C@H](C(=O)NCC(C)(C)C(N)=O)C(C)C)C(C)C)ccc1OC; assay: ATPase assay in membrane vesicles expressing high levels of MDR1; format: biochemical, human; conditions: other: membrane vesicles expressing high levels of MDR1; pH 7.4; 37.0 °C
T1 construct: host or cells: Sf9 (Spodoptera frugiperda) membrane vesicles
From the text: The efflux protein(s) involved in the drug efflux of a drug substance may be identified, and the corresponding kinetic parameters may be determined, i.e., Michaelis-Menten Constant and Maximal Drug Transport (Km and Jmax) using methods known in the art, e.g., by an ATPase assay using Sf9 (Spodoptera fruigiperda) membrane vesicles expressing high levels of the selected ABC transporter. In this assay the ABC transporters remove substrates out of cells by using ATP hydrolysis as an energy source. ATP hydrolysis yields inorganic phosphate (Pi), which can be detected by a simple colorimetric reaction. The amount of Pi liberated by the transporter is proportional to the activity of the transporter. Membrane preparations containing ABC transporters show a baseline ATPase activity that varies for different transporters. […]
Efflux mediated by the human MDR1, the human MRP1 or the human MRP2 is measured by incubating the purified membrane vesicles in the absence and the presence of a stimulating agent (Verapamil [40 μM] for MDR1, NEM-GS [10 mM] for MRP1 and Probenecid [1 mM] for MRP2) with different concentrations of a drug substance [0.046, 0.137, 0.41, 1.23, 3.7, 11.1, 33.3 and 100 μM] in transport buffer at pH 7.4 at 37° C. […]
After incubating the OD is measured at 730 nm. Using a previously determined phosphate standard curve the Pi liberated [nmol/well] can be calculated. […]

[2] = In situ bile-duct cannulated rat experiment (biliary clearance); conditions: for effect on 14C concentration in plasma: i.v. bolus of inhibitor (PSC833 10 mg/kg, probenecid 50 mg/kg) during constant infusion of [14C]-SPP100 hemifumarate
Experimental: The effect in situ of co-administration of an efflux protein inhibitor, e.g., a MDR1 inhibitor, on the biliary excretion of a renin inhibitor may be investigated by comparing the amount of compound excreted into bile, in the presence and the absence of an efflux protein inhibitor.
The animals that may be used are, e.g., male albino HAN:WIST rats, 4 to 5 animals in each treatment group.
For all treatment groups blood samples are collected at 0.5, 1, 1.33, 1.67, 2, 2.33, 2.67, 3 h after treatment and blood is immediately processed to plasma. Bile is collected for the time frame of 1 to 3 h in intervals of 20 min.
• for total radioactivity in all samples: LSC; LOQ 3.4 μg/L for plasma and bile; and • for detection of metabolite pattern in selected pools of samples: HPLC with radioactivity detection.

[3] = In vivo bioavailability experiment, single oral administration; parameters: species or system rat; conditions: for Cmax / Tmax: male, HAN:WIST, rat, plasma, po
From the text: Similarly, the effect in vivo of co-administration of an efflux protein inhibitor, e.g., a MDR1 inhibitor, on the bioavailability of a renin inhibitor may be investigated by comparing the pharmacokinetic parameters, Cmax and AUCs, in the presence and the absence of an efflux protein inhibitor.
The animals that may be used are, e.g., male albino HAN:WIST rats, 5 animals in each treatment group.
Plasma is used for biochemical analysis.

Caco-2 cell monolayers = assay: in vitro; conditions: human, Caco-2, 120 min
From the text: as §1, §2, §3, §4, §5, §6

[4] = probenecid 50 mg/kg i.v. during constant infusion of [14C]-SPP100 hemifumarate
[5] = 6 mg base/kg, rat plasma, oral SPP100 hemifumarate 6 mg base/kg + vehicle
[6] = 6 mg/kg, oral SPP100 6 mg base/kg + PSC833 5 mg/kg
[7] = 6 mg/kg, oral SPP100 6 mg base/kg + PSC833 12.5 mg/kg
[8] = 6 mg/kg, oral SPP100 6 mg base/kg + PSC833 25 mg/kg
[9] = 6 mg/kg, oral SPP100 6 mg base/kg + PSC833 50 mg/kg

Molecule: human MDR1 (Homo sapiens)
Km [1]: 3 µM

Molecule: OC[C@@H](O)[C@@H](O)[C@H](O)[C@H](O)CO [Mannitol, reference compound]
Papp A→B at 120 min (in vitro): < 0.5 ×10⁻⁶ cm/s

Molecule: COCCCOc1cc(C[C@@H](C[C@H](N)[C@@H](O)C[C@H](C(=O)NCC(C)(C)C(N)=O)C(C)C)C(C)C)ccc1OC [SPP100, (2S,4S,5S,7S)-5-amino-4-hydroxy-2-isopropyl-7-[4-methoxy-3-(3-methoxy-propoxy)-benzyl]-8-methyl-nonanoic acid (2-carbamoyl-2-methyl-propyl)-amide hemifumarate]
Cmax [3, 5]: ~24.8 ng/mL
Tmax [3, 5]: 0.44 ± 0.1 h
Cmax [3, 6]: 35.7 ± 18 ng/mL
Tmax [3, 6]: 4.8 ± 1.8 h
Cmax [3, 7]: 115 ± 93 ng/mL
Tmax [3, 7]: 4.95 ± 4.2 h
Cmax [3, 8]: 81.4 ± 19 ng/mL
Tmax [3, 8]: 15.2 ± 18 h
Cmax [3, 9]: 26.7 ± 18 ng/mL
Tmax [3, 9]: 3.06 ± 1.9 h
dose-normalized AUC(0-tlast), times higher than in the vehicle group ([3]; oral SPP100 6 mg base/kg + PSC833 5 mg/kg): about 23 times
dose-normalized AUC(0-tlast), times higher than in the vehicle group ([3]; oral SPP100 6 mg base/kg + PSC833 12.5 mg/kg): ~69 times
dose-normalized AUC(0-tlast), times higher than in the vehicle group ([3]; oral SPP100 6 mg base/kg + PSC833 25 mg/kg): ~76 times
dose-normalized AUC(0-tlast), times higher than in the vehicle group ([3]; oral SPP100 6 mg base/kg + PSC833 50 mg/kg): ~17 times
increase of dose-normalized AUC(0-tlast) compared to control group solely dosed with SPP100 ([3]; orally dosed rats, in the presence of PSC833): about 70 fold
dose-normalized AUC(0-tlast) ([3]; rat plasma, oral SPP100 hemifumarate 6 mg base/kg + vehicle): 2.38±3.4 (ng*h/mL)/(mg/kg)
intrinsic permeability (Caco-2 cell monolayers): < 80%
Papp A→B at 120 min, 1 μM (in vitro): ~0.0333 ×10⁻⁶ cm/s
Papp A→B at 120 min, 10 µM (in vitro): ~1.17 ×10⁻⁶ cm/s
Papp B→A at 120 min, 1 µM (in vitro): ~1.67 ×10⁻⁶ cm/s

Molecule: C/C=C/C[C@@H](C)C(=O)[C@H]1C(=O)N[C@@H](C(C)C)C(=O)N(C)CC(=O)N(C)[C@@H](CC(C)C)C(=O)N[C@@H](C(C)C)C(=O)N(C)[C@@H](CC(C)C)C(=O)N[C@@H](C)C(=O)N[C@H](C)C(=O)N(C)[C@@H](CC(C)C)C(=O)N(C)[C@@H](CC(C)C)C(=O)N(C)[C@@H](C(C)C)C(=O)N1C [PSC833]
effect on 14C concentration in bile ([2]; PSC833 10 mg/kg i.v. during constant infusion of [14C]-SPP100 hemifumarate): significant decrease
effect on 14C concentration in plasma [2]: trend towards a time dependent increase
biliary clearance of [14C]-labeled compounds, % of the value obtained before administration ([2]; i.v. bolus of inhibitor during constant i.v. infusion of [14C]-SPP100 hemifumarate, PSC833 10 mg/kg): approximately 7%

Other lines, results leading:

Papp A→B at 120 min (in vitro): < 15 ×10⁻⁶ cm/s
Molecule: CC(C)NCC(O)COc1cccc2ccccc12 (centres unmarked) [Propranolol, reference compound]

effect on 14C concentration in plasma [2]: no effect
biliary clearance before and after administration [2, 4]: similar
decrease of the [14C] concentration in bile vs value prior to administration [2, 4]: about 40%
Molecule: CCCN(CCC)S(=O)(=O)c1ccc(C(=O)O)cc1 [probenecid]
